Consider 2 compounds from ChEMBL document CHEMBL5154644, “Design, Synthesis, and Structure-Activity Relationship Optimization of Pyrazolopyrimidine Amide Inhibitors of Phosphoinositide 3-Kinase γ (PI3Kγ)” (J Med Chem, 2022).

Molecules are shown by their SMILES.

T1 sequence (P48736 whole entry, canonical isoform): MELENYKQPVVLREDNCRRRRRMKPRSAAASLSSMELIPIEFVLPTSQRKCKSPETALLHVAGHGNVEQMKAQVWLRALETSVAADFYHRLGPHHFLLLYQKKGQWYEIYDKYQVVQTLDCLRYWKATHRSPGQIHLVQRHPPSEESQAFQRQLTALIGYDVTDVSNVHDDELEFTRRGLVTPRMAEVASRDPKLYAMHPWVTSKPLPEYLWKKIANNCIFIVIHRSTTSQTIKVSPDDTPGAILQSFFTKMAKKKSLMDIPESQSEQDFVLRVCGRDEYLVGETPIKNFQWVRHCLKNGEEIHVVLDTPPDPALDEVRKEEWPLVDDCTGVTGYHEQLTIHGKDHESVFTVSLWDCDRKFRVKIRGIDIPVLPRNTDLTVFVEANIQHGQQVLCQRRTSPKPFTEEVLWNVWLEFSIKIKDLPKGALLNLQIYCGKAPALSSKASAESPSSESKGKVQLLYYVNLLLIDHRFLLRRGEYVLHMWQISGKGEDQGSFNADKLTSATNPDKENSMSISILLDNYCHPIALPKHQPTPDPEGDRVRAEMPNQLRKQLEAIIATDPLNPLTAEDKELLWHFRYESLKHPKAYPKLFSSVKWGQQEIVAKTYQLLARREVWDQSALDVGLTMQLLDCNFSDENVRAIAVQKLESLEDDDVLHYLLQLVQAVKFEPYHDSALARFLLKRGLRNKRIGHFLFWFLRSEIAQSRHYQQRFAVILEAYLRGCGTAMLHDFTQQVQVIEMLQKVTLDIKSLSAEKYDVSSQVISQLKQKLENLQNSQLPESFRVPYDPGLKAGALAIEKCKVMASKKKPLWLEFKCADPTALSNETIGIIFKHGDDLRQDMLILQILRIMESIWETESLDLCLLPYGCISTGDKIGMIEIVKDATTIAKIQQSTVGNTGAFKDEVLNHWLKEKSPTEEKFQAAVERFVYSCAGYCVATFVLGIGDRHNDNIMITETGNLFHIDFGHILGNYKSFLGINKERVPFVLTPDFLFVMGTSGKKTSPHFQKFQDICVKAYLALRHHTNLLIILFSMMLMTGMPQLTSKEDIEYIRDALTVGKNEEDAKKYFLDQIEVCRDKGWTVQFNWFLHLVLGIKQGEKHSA
Phosphatidylinositol 4,5-bisphosphate 3-kinase catalytic subunit beta isoform, sequence (P42338 whole entry, canonical isoform): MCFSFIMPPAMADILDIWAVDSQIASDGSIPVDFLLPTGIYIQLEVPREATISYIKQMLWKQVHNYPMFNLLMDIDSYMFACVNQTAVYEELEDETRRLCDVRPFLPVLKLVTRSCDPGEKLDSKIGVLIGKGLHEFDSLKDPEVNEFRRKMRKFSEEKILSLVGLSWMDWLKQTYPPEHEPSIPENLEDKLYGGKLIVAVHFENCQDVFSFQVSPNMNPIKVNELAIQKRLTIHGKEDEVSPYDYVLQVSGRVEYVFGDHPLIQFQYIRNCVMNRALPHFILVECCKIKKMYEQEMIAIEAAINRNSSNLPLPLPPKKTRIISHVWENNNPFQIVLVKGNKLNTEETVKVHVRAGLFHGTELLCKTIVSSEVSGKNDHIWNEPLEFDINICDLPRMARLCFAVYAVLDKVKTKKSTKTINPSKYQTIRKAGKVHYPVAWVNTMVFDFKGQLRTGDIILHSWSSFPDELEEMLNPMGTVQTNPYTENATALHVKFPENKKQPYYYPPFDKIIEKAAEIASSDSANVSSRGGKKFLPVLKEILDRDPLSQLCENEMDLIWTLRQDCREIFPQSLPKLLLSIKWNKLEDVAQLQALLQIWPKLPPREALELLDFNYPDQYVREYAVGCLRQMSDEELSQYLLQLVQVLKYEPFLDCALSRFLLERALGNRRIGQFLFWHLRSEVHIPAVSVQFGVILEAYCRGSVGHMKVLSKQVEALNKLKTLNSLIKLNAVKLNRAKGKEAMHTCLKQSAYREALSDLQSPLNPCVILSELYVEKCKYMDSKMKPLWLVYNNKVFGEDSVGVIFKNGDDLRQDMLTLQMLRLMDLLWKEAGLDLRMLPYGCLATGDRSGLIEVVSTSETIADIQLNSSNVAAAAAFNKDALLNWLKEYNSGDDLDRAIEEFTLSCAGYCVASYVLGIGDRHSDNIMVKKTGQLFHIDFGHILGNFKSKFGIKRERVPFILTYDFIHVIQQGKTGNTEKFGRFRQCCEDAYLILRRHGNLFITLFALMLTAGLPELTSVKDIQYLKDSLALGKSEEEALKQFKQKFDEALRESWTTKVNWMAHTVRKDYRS

The first data set concerns the target Phosphatidylinositol 4,5-bisphosphate 3-kinase catalytic subunit beta isoform (Homo sapiens, UniProt P42338). The experiment in a line: Inhibition of PI3Kbeta (unknown origin) using PIP2 as substrate preincubated for 1 hr followed by substrate addition and measured after 60 mins in presence of ATP by ADP-glo assay.
Conditions: not given
(In general: ADP-Glo first removes unused ATP, then detects ADP through luciferase.)
As a reminder, the IC50 is the point on the concentration scale where inhibition reaches its midpoint. On to `C[C@@H](C1CC1)N1Cc2cc(-c3ccn4nc(N)c(C(=O)N[C@@H](CO)C5CC5)c4n3)cc(OC(F)(F)F)c2C1=O`, for which the IC50 was found to be 8550 nM.
On the same count and under the same terms, then `C[C@@H](C1CC1)N1Cc2cc(-c3ccn4nc(N)c(C(=O)N[C@H]5CC[C@](C)(O)CC5)c4n3)cc(NS(C)(=O)=O)c2C1=O`, with 7570 nM.

A further data set is filed under the species Homo sapiens. The experiment in a line: Selectivity ratio of IC50 for inhibition of PI3Kbeta (unknown origin) to IC50 for inhibition of PI3Kgamma (unknown origin).
Conditions: not given
As to `C[C@@H](C1CC1)N1Cc2cc(-c3ccn4nc(N)c(C(=O)N[C@@H](CO)C5CC5)c4n3)cc(OC(F)(F)F)c2C1=O`, the Ratio IC50 was 3040.
Same read-out and setting: then `C[C@@H](C1CC1)N1Cc2cc(-c3ccn4nc(N)c(C(=O)N[C@H]5CC[C@](C)(O)CC5)c4n3)cc(NS(C)(=O)=O)c2C1=O`, with 8410.

Another data set concerns the target T1, Phosphatidylinositol 4,5-bisphosphate 3-kinase catalytic subunit gamma isoform (Homo sapiens, UniProt P48736). In words: Inhibition of PI3Kgamma (unknown origin) in […] stimulated human THP-1 cells assessed as reduction in Akt phosphorylation level at Ser473 residue preincubated for 60 mins followed by rhMCP-1 stimulation and measured after 2 mins by AlphaLisa assay. It counts as cell-based.
Conditions: not given
A general note: Alpha assays give light when donor and acceptor beads are brought close together.
With `C[C@@H](C1CC1)N1Cc2cc(-c3ccn4nc(N)c(C(=O)N[C@@H](CO)C5CC5)c4n3)cc(OC(F)(F)F)c2C1=O`, the IC50 was found to be 72 nM.
The same measure, in the same setting: to `C[C@@H](C1CC1)N1Cc2cc(-c3ccn4nc(N)c(C(=O)N[C@H]5CC[C@](C)(O)CC5)c4n3)cc(NS(C)(=O)=O)c2C1=O` belongs 22 nM.

For another data set, the target named is Phosphatidylinositol 4,5-bisphosphate 3-kinase catalytic subunit alpha isoform (Homo sapiens, UniProt P42336). The experiment in a line: Inhibition of PI3Kalpha (unknown origin) using PIP2 as substrate preincubated for 1 hr followed by substrate addition and measured after 60 mins in presence of ATP by ADP-glo assay.
Phosphatidylinositol 4,5-bisphosphate 3-kinase catalytic subunit alpha isoform, sequence (P42336 whole entry, canonical isoform): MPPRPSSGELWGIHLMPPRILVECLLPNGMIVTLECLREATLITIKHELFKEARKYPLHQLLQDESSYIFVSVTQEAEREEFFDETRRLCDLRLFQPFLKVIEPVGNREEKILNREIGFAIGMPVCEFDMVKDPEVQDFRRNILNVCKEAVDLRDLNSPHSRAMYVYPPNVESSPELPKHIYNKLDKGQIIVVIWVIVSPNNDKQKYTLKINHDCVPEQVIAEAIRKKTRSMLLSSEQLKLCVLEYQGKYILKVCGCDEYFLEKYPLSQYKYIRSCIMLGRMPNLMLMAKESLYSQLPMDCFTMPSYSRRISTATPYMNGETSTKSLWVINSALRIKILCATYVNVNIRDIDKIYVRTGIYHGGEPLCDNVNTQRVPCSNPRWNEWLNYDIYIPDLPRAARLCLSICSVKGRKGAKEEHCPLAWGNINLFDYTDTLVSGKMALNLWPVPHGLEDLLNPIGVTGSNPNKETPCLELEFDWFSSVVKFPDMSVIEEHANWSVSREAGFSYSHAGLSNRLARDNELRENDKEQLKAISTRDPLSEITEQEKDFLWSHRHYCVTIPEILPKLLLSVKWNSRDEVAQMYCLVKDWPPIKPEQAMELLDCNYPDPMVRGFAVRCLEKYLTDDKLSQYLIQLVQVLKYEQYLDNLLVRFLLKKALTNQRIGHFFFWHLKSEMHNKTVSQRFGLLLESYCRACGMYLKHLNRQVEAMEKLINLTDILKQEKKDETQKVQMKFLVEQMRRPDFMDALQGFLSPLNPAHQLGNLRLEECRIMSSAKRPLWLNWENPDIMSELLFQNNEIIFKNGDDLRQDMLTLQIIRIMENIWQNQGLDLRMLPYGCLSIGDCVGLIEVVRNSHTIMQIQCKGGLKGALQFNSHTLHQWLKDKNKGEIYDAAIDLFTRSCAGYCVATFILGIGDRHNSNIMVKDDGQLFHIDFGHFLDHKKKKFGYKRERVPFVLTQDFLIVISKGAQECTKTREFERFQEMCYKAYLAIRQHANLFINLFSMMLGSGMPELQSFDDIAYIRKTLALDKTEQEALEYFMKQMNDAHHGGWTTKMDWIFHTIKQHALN
Conditions: not given
Regarding `C[C@@H](C1CC1)N1Cc2cc(-c3ccn4nc(N)c(C(=O)N[C@@H](CO)C5CC5)c4n3)cc(OC(F)(F)F)c2C1=O`, the IC50 came out at 2060 nM.
On the same count and under the same terms, then `C[C@@H](C1CC1)N1Cc2cc(-c3ccn4nc(N)c(C(=O)N[C@H]5CC[C@](C)(O)CC5)c4n3)cc(NS(C)(=O)=O)c2C1=O`, with 326 nM.

Tested on in the next data set: not listed separately
The experiment in a line: Metabolic stability in human hepatocytes assessed as intrinsic clearance per 10^6 cells at 0.5 uM by LC-MS/MS analysis. It counts as ADME, cell-based, Hepatocyte. As to conditions: read-out: CLH.
For `C[C@@H](C1CC1)N1Cc2cc(-c3ccn4nc(N)c(C(=O)N[C@@H](CO)C5CC5)c4n3)cc(OC(F)(F)F)c2C1=O`, the hepatocyte CLint at 0.5 µM came to 4.05 µL/min/1e6 cells.
Still for that read-out and setting: to `C[C@@H](C1CC1)N1Cc2cc(-c3ccn4nc(N)c(C(=O)N[C@H]5CC[C@](C)(O)CC5)c4n3)cc(NS(C)(=O)=O)c2C1=O` belongs 3.39 µL/min/1e6 cells.

The target in another data set is T1, Phosphatidylinositol 4,5-bisphosphate 3-kinase catalytic subunit gamma isoform. The experiment in a line: Inhibition of PI3Kgamma (unknown origin) using PIP2 as substrate preincubated for 1 hr followed by substrate addition and measured after 60 mins in presence of ATP by ADP-glo assay.
Conditions: not given
For the compound `C[C@@H](C1CC1)N1Cc2cc(-c3ccn4nc(N)c(C(=O)N[C@@H](CO)C5CC5)c4n3)cc(OC(F)(F)F)c2C1=O`, the IC50 was 2.8 nM.
Still for that read-out and setting: to `C[C@@H](C1CC1)N1Cc2cc(-c3ccn4nc(N)c(C(=O)N[C@H]5CC[C@](C)(O)CC5)c4n3)cc(NS(C)(=O)=O)c2C1=O` belongs 0.9 nM.

Tested on in a further data set: not listed separately
In words: Metabolic stability in rat hepatocyte assessed as intrinsic clearance per 10^8 cells at 0.5 uM by LC-MS/MS analysis. It counts as ADME, cell-based. Particulars: hepatocytes.
Consider `C[C@@H](C1CC1)N1Cc2cc(-c3ccn4nc(N)c(C(=O)N[C@@H](CO)C5CC5)c4n3)cc(OC(F)(F)F)c2C1=O`, for which the hepatocyte intrinsic clearance is below 1.2 µL/min.
Same read-out and setting: then `C[C@@H](C1CC1)N1Cc2cc(-c3ccn4nc(N)c(C(=O)N[C@H]5CC[C@](C)(O)CC5)c4n3)cc(NS(C)(=O)=O)c2C1=O`, with 8.24 µL/min.

The target in the next data set is CYP3A4 (Homo sapiens, UniProt P08684). In words: in vitro. Particulars: human liver microsomes, probe midazolam. In general terms: Liver microsomes are a subcellular fraction often used to study metabolism.
CYP3A4, sequence (P08684 whole entry): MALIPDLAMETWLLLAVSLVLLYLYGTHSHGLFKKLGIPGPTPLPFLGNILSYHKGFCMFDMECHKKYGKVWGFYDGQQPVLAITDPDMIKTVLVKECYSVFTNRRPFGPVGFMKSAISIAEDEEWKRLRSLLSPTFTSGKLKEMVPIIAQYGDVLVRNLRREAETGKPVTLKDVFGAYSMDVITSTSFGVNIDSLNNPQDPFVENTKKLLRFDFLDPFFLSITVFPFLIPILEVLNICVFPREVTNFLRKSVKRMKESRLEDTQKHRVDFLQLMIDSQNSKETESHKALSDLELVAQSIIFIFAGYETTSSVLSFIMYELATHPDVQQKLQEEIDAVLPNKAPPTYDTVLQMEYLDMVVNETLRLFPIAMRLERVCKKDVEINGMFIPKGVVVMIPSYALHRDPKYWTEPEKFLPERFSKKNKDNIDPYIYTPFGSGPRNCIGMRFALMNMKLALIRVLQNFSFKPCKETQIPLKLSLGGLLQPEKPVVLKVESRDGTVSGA
Description: Time dependent inhibition of CYP3A4 in human liver microsomes at 10 uM using midazolam as substrate preincubated for 30 mins in presence of NADPH by LC/MS/MS analysis relative to control
By inhibition is commonly meant how much of the control response was suppressed. A high value points to strong suppression. In the case of `C[C@@H](C1CC1)N1Cc2cc(-c3ccn4nc(N)c(C(=O)N[C@@H](CO)C5CC5)c4n3)cc(OC(F)(F)F)c2C1=O`, the inhibition at 30 min, 10 µM was found to be 6%.
The same measure, in the same setting: to `C[C@@H](C1CC1)N1Cc2cc(-c3ccn4nc(N)c(C(=O)N[C@H]5CC[C@](C)(O)CC5)c4n3)cc(NS(C)(=O)=O)c2C1=O` belongs 12%.

Another data set addresses T2, Phosphatidylinositol 4,5-bisphosphate 3-kinase catalytic subunit delta isoform (Homo sapiens, UniProt O00329).
T2 sequence (O00329 whole entry): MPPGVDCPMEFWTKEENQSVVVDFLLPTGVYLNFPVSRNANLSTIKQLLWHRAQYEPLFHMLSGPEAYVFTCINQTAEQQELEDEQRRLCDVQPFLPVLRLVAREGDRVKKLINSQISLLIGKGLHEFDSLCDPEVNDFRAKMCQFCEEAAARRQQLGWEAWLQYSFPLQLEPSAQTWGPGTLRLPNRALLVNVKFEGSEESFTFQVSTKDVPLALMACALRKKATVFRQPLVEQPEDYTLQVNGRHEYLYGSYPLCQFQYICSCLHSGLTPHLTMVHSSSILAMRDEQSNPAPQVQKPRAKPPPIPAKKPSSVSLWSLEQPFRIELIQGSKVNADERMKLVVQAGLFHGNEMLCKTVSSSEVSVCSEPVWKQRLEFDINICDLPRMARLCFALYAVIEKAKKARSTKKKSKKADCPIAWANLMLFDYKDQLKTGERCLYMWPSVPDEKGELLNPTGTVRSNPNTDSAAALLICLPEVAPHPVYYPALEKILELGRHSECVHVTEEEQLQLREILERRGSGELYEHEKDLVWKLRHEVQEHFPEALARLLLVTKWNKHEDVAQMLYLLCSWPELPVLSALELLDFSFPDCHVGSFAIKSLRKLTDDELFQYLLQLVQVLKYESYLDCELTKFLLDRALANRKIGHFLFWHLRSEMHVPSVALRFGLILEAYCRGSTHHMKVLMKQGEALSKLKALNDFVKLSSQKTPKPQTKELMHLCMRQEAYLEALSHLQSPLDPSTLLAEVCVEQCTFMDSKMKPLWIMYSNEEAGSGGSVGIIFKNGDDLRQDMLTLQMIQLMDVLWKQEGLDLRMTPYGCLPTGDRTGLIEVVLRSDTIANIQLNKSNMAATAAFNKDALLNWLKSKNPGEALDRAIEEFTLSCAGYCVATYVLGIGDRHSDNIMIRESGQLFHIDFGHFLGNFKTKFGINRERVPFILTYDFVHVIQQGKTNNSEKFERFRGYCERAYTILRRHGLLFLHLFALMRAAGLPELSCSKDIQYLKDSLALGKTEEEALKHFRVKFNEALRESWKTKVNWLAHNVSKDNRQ
The experiment in a line: Inhibition of PI3Kdelta (unknown origin) using PIP2 as substrate preincubated for 1 hr followed by substrate addition and measured after 60 mins in presence of ATP by ADP-glo assay.
Conditions: not given
Consider `C[C@@H](C1CC1)N1Cc2cc(-c3ccn4nc(N)c(C(=O)N[C@@H](CO)C5CC5)c4n3)cc(OC(F)(F)F)c2C1=O`, for which the IC50 was determined as 1790 nM.
Same read-out and setting: to `C[C@@H](C1CC1)N1Cc2cc(-c3ccn4nc(N)c(C(=O)N[C@H]5CC[C@](C)(O)CC5)c4n3)cc(NS(C)(=O)=O)c2C1=O` belongs 268 nM.

In the next data set the target is T1, Phosphatidylinositol 4,5-bisphosphate 3-kinase catalytic subunit gamma isoform. In words: Inhibition of PI3Kgamma in SDF-1alpha stimulated human whole blood assessed as reduction in phospho-AKT kinase activity preincubated for 1 hr followed by SDF-1alpha stimulation and measured after 2 mins by flow cytometric analysis.
Conditions: not given
The format is tissue-based.
In the case of `C[C@@H](C1CC1)N1Cc2cc(-c3ccn4nc(N)c(C(=O)N[C@@H](CO)C5CC5)c4n3)cc(OC(F)(F)F)c2C1=O`, the IC50 came out at 750 nM.
Same read-out and setting: then `C[C@@H](C1CC1)N1Cc2cc(-c3ccn4nc(N)c(C(=O)N[C@H]5CC[C@](C)(O)CC5)c4n3)cc(NS(C)(=O)=O)c2C1=O`, with 420 nM.

Tested on in a further data set: not listed separately
The experiment in a line: Hepatic clearance in Sprague-Dawley rat by LC-MS/MS analysis. It counts as ADME. As to conditions: in vivo.
As for `C[C@@H](C1CC1)N1Cc2cc(-c3ccn4nc(N)c(C(=O)N[C@@H](CO)C5CC5)c4n3)cc(OC(F)(F)F)c2C1=O`, the CLH amounted to 21.7 mL/min/kg.
On to `C[C@@H](C1CC1)N1Cc2cc(-c3ccn4nc(N)c(C(=O)N[C@H]5CC[C@](C)(O)CC5)c4n3)cc(NS(C)(=O)=O)c2C1=O`, for which the CLH is 30 mL/min/kg.

A further data set is filed under the species Homo sapiens. In words: Selectivity ratio of IC50 for inhibition of PI3Kalpha (unknown origin) to IC50 for inhibition of PI3Kgamma (unknown origin).
Conditions: not given
For the compound `C[C@@H](C1CC1)N1Cc2cc(-c3ccn4nc(N)c(C(=O)N[C@@H](CO)C5CC5)c4n3)cc(OC(F)(F)F)c2C1=O`, the Ratio IC50 was 733.
Still for that read-out and setting: to `C[C@@H](C1CC1)N1Cc2cc(-c3ccn4nc(N)c(C(=O)N[C@H]5CC[C@](C)(O)CC5)c4n3)cc(NS(C)(=O)=O)c2C1=O` belongs 362.
